The values below come from US20260256870A1, “SKIN COMPOSITION” (Eaderm Co., Ltd., priority 2019, published 2026).

Entries after “also recorded” stand apart in the source; their conditions may differ. Counter-ions that a name gives are not always drawn.

Data set [1] has as its system skin damage induced by erlotinib. As to the kind of experiment: Improvement of skin damage caused by erlotinib administration, TEWL (Example 10). In kind it is in vivo, C57BL6N mice. To be noted: erlotinib 50 mg/kg/day intraperitoneal, 7 weeks old or 6 months old mice (FIG. 19). The method, then:
Female […] mice (7 weeks old or 6 months old) were acclimatized to the experimental environment, and then hair was removed from their back under anesthesia. […] The control non-administered group received the 0.5% methylcellulose solution of the solvent in the same way. The control group applied with the solvent and the group applied with 200 μM apocynin received an aqueous solution of each preparation once a day, five times a week on the back. To the control solvent application group the solvent (50% ethanol/PBS) of apocynin was similarly applied.

Data set [2] deals with skin damage induced by anticancer drugs. As to the kind of experiment: TEWL after EGF receptor inhibitor administration (Example 9). To be noted: control mice about 18 months old, 50 mg/kg/day intraperitoneal, day 7 (FIG. 18). The text has this:
A 0.5% methylcellulose solution of the solvent was similarly administered to the control non-treated group. […] Measurements were taken at specific sites on the back of the mice (two sites symmetrically located on the left side and right side from the center of the spine) using Tewameter TN300 (Courage+Khazaka, Integral Corporation, Germany).

In data set [3] the test system is COL17A1. Kind of data set: Stabilization of COL17A1 against UV-induced repression.
Data set [4] deals with back skin. As to the kind of experiment: Skin elasticity and TEWL after long-term application (Example 14). Format: in vivo, hairless mice (HOS: HR-1). Conditions: three times a week for seven weeks, day 53; retinol 0.1%, apocynin 200 μM (FIG. 23).
Protocol: TEWL measurements and skin elasticity measurements were performed on the back of each group (at two sites on the left side and right side symmetrically from the center of the spine) 7 weeks after the start of application (day 53). TEWL measurements were performed at specific sites on the back of mice (two sites on the left side and right side symmetrically from the center of the spine). The elasticity of the skin was measured using Cutometer MPA580 (Courage+Khazaka, Integral Corporation, Germany) (parameter settings: 300 mba, 2 sec ON time, 2 sec OFF time), and the average value of the three measurements was used for analysis. By suctioning the skin on the back of the mouse for 2 seconds and then releasing the suction 2 seconds later, the length of the skin stretched was measured at each time point immediately after suctioning, immediately before suction release, and immediately after suction release; and they are return of the skin at the time of suction release (Ua: unit mm), rapid stretching in the initial stage of suctioning (Ue: unit mm), maximum degree of skin stretch just before suction release (Uf: unit mm), and the amount of rapid recovery immediately after suction release (Ur: unit mm). R5-Ur/Ue was set as the index of net elasticity, and R7=Ur/Uf as the index of elasticity. R2=Ua/Uf was set as the index of gross elasticity.
Data set [5] deals with UV-induced wrinkles of back skin. Kind of data set: Wrinkle improvement after UV irradiation (Example 15). Format: in vivo, Hairless mice HOS: HR-1. Conditions: UVA+UVB, retinol 0.1%, apocynin 200 μM, long-term application (FIG. 25). The text has this:
In a mouse model in which wrinkle formation was induced by long-term exposure to ultraviolet (UVA) light, the present inventors examined the effect of substances that promote the self-renewal ability of epidermal stem cells on the improvement of wrinkles.
Hairless mice HOS: HR-1 females (7 weeks old) were acclimated to the experimental environment and then grouped into the […] groups below, so that their body weight values would be nearly uniform. • No UV irradiation group (n=2). • UV (UVA+UVB) irradiation+solvent application group (n=4) • Ultraviolet (UVA+UVB) irradiation+200 μM apocynin application group (n=4). • UV (UVA+UVB) irradiation+0.1% retinol application group (n=2) […]
For each group of mice from the first to the fourth week after the start of UV irradiation, the back was photographed with a high-resolution three-dimensional image analyzer PRIMOS-CR (Canfield Scientific, Inc., USA). Based on the images obtained, total wrinkle volume (mm^3) and total wrinkle mean depth (μm) were measured with the Primos OMC3_22 software. Skin flexibility was measured using Cutometer MPA580 (Courage+Khazaka, Integral Corporation, Germany), and the value of RO was used as skin flexibility.

Data set [6] has as its system human epidermal keratinocytes. As to the kind of experiment: Colony formation assay using human epidermal keratinocytes. Format: cell-based. The text has this:
To test whether COL17A1-mediated SCD maintains clonal proliferation of epidermal stem cell clones, the present inventors used a colony formation assay, which is an in vitro assay said to be the gold standard for assessing the self-renewal ability of epidermal stem cells, including cells in the tail epidermis.

Data set [7] has as its system COL17A1. As to the kind of experiment: COL17A1 expression in human epidermal keratinocytes by high content imaging (HCS). In kind it is cell-based. Conditions: for COL17A1 expression level (control ratio): human epidermal keratinocytes, 48 hours after addition of reagents. How it is done: The present inventors further searched for substances that induce or maintain the expression of COL17A1. Human epidermal keratinocytes were seeded in 384-well plates, cultured for 48 hours after addition of reagents, immunostained with an anti-COL17A1 antibody and a fluorescently labeled secondary antibody, and then the fluorescence intensity per cell was detected using a high content imaging system (HCS: High Content Screening). In addition to cell counting with DAPI, the expression level of COL17A1 was quantified.

Data set [8] concerns full thickness wounds in the skin of rodent tails. Kind of data set: Full thickness wound healing in tail skin. In kind it is in vivo, mice. To be noted: day 0, day 14, day 21 (FIG. 12). How it is done: To test the above hypothesis, the present inventors performed a full-layer wound healing experiment using the tail skin of aged wild-type mice. […] Forced expression of hCOL17A1 by basal layer keratinocytes in mice also promoted wound healing (FIG. 12). […] To confirm the beneficial effects in vivo, these drugs were administered to full thickness wounds in the skin of rodent tails.

The subject of data set [9] is UVB-irradiated back skin. As to the kind of experiment: Barrier function after UVB irradiation (Example 12). In kind it is in vivo, Hairless mice HOS: HR-1. Conditions: for water content of the stratum corneum after ultraviolet irradiation: UVB 150 mJ/cm^2, fourth day (FIG. 21). The method, then:
Hairless mice HOS: HR-1 females (7 weeks old) were acclimatized to the experimental environment and then grouped into the 6 groups below, so that the body weight values were nearly uniform. • No ultraviolet irradiation group (n=2) • Ultraviolet (UVB) irradiation+solvent application group (n=4). • Ultraviolet (UVB) irradiation+200 nM apocynin application group (n=4). • Ultraviolet (UVB) irradiation+200 μM apocynin application group (n=4). • Ultraviolet (UVB) irradiation+2 μM Y-27632 application group (n=4). • Ultraviolet (UVB) irradiation+20 μM Y-27632 application group (n=4) In the above solution application group, aqueous solutions of each preparation were applied to hairless mice on their back once a day for five days, starting from the day before ultraviolet irradiation. UVB irradiation was carried out using a Yayoi ultraviolet irradiation system (Y-UV-Lab-K-D5 lamp type) at an intensity of 150 mJ/cm^2 once a day. The stratum corneum water content and TEWL of the irradiated area were measured for each group of mice on the fourth day after the start of ultraviolet irradiation. The measurements were performed using Corneometer CM825 and Tewameter TN300 (Courage+Khazaka, Integral Corporation, Germany) at specific sites on the back of the mice.

Data set [10] concerns COL17A1. Conditions: HaCaT cells, 24 hours after hydrogen peroxide treatment (FIG. 17).
Protocol: The anticancer agent hydroxyurea was administered to 7-week-old C57BL6 mice three times a month, and the tissues were collected three months later for immunostaining using an antibody for COL17A1. […] In addition, HaCaT cells, which are human epidermal keratinocytes, were irradiated with radiation (20 Gy, 30 Gy) and UV light (20 mJ, 30 mJ) and the cells were collected after 24 and 72 hours, respectively, and Western blotting was performed using an antibody against COL17A1.
Setting [11] is: Table 1, fluorescence intensity per cell.

On to `C#Cc1cccc(Nc2ncnc3cc(OCCOC)c(OCCOC)cc23)c1` [Erlotinib], for which the TEWL entry in data set [1] and in data set [2] was “significantly increased” throughout.

`CNC(=O)[C@@H](NC(=O)[C@H](CC(C)C)[C@H](O)C(=O)NO)C(C)(C)C` [Marimastat]: the “COL17A1 stability / UV-induced downward repression of COL17A1” value in [3] is “stabilizes COL17A1 and blocks the UV-induced downward repression of COL17A1”.

Consider `CC1=C(/C=C/C(C)=C/C=C/C(C)=C/CO)C(C)(C)CCC1` [Retinol], for which, in data set [4], the “TEWL after long-term continuous application” value was “significantly increased”. The TEWL entry is “significantly increased” in data set [5] and “marked increase” in [5] (listed as retinol).

Turning to `C[C@H]1CNCCCN1S(=O)(=O)c1cccc2cncc(F)c12` [Ripasudil], in data set [6] (Table 1), the “Colony area (control ratio)” value is recorded as “⊚ (one double circle (⊚) indicates maintenance of 1.0-1.2-fold)” and the “Colony number (control ratio)” value is listed as “⊚ (one double circle (⊚) indicates maintenance of 1.0-1.2-fold)”. Besides, the “COL17A1 expression level (control ratio)” value in data set [7] (setting [11]) is listed as “⊚⊚ (two double circles (⊚⊚) in the COL17A1 expression level (control ratio) represent a 2.0-fold or greater increase in the expression level)”.

Take `CC(CN(C)C)CN1c2ccccc2CCc2ccccc21` (centres unmarked) [Trimipramine Maleate]: in data set [6] (Table 1), the “Colony area (control ratio)” value is given as “⊚ (one double circle (⊚) indicates maintenance of 1.0-1.2-fold)” and the “Colony number (control ratio)” value is “⊚ (one double circle (⊚) indicates maintenance of 1.0-1.2-fold)”. Moreover, the “COL17A1 expression level (control ratio)” value in data set [7] (setting [11]) is “⊚⊚ (two double circles (⊚⊚) in the COL17A1 expression level (control ratio) represent a 2.0-fold or greater increase in the expression level)”.

On to `C[C@@H](N)[C@H]1CC[C@H](C(=O)Nc2ccncc2)CC1` [Y-27632], for which the results for the “wound repair (unrepaired wound area)” value in [8] and in [8] (listed as Y27632) were “significantly accelerated” and “significantly promote the wound repair process”, respectively. Besides, the “water content of the stratum corneum after ultraviolet irradiation” value in [9] (2 μM applied) and in data set [9] (20 μM applied) was “significantly higher” throughout. Besides, the “TEWL after ultraviolet irradiation” value in data set [9] (20 μM administration group, UVB, fourth day (FIG. 21)) is on record as “significantly lower”. Further, the “Colony area (control ratio)” value in [6] (Table 1) is “⊚ (one double circle (⊚) indicates maintenance of 1.0-1.2-fold)”. Further, the “Colony number (control ratio)” value in data set [6] (Table 1) was “⊚ (one double circle (⊚) indicates maintenance of 1.0-1.2-fold)”. For the same molecule, the number of colonies result in data set [6] (compared to the control, n=3 wells (FIG. 13, FIG. 16)) is listed as “significantly increased”. For the same molecule, the “average size of the top five colonies” value in [6] (compared to the control, n=3 wells (FIG. 14)) was “significantly increased”. Moreover, the colony size result in data set [6] (human epidermal keratinocytes) is “significantly increased”. In data set [6] (n=3 wells (FIG. 13 right)), the “number of colonies with a diameter greater than 2 mm” value is recorded as “significantly increased”. In data set [7] (setting [11]), the “COL17A1 expression level (control ratio)” value is given as “⊚⊚ (two double circles (⊚⊚) in the COL17A1 expression level (control ratio) represent a 2.0-fold or greater increase in the expression level)”. Besides, in data set [7] (in vitro, HCS (FIG. 15)), the “COL17A1 expression / amount of COL17A1 in cultured keratinocytes compared to the control” value is on record as “maintain or induce the COL17A1 expression; also recorded: induce the COL17A1 expression”.

As to `OO` [hydrogen peroxide], the “expression of COL17A1 (Western blot)” value in [10] was “marked decrease”.

Regarding Helenin, in data set [6] (Table 2), the “Colony area (control ratio)” value is given as “⊚ (one double circle (⊚) indicates maintenance of 1.0-1.2-fold)” and the “Colony number (control ratio)” value is recorded as “⊚ (one double circle (⊚) indicates maintenance of 1.0-1.2-fold)”. The “COL17A1 expression level (control ratio)” value in data set [7] (Table 2) is reported as “⊚⊚ (two double circles (⊚⊚) in the COL17A1 expression level (control ratio) represent a 2.0-fold or greater increase in the expression level)”.
